Reference: patent US5179088A, “1-Carba(dethia)cephalosporin antibiotics” (Eli Lilly and Company, priority 1990, dated 1993)

Key:
Assay type in all cases: cell-based
Set-up in all cases: unit not given here
Salmonella = assay: in vitro antibacterial activity, agar dilution (Salmonella)
Method: (§1) *minimum inhibitory concentrations were determined by the Agardilution

Proteus morg = assay: in vitro antibacterial activity, agar dilution (Proteus morg); conditions: strain PR15
Method: as §1

E. coli = assay: in vitro antibacterial activity, agar dilution (E. coli)
Method: as §1

Klebsiella = assay: in vitro antibacterial activity, agar dilution (Klebsiella)
Method: as §1

Citro = assay: in vitro antibacterial activity, agar dilution (Citro); conditions: strain CF17
Method: as §1

Streptococcus D = assay: in vitro antibacterial activity, agar dilution (Streptococcus D)
Method: as §1

Staphylococcus Aureus = assay: in vitro antibacterial activity, agar dilution (Staphylococcus aureus)
Method: as §1

Enterbacter Cloacea = assay: in vitro antibacterial activity, agar dilution (Enterobacter cloacae)
Method: as §1

Acin = assay: in vitro antibacterial activity, agar dilution (Acin); conditions: strain AC12
Method: as §1

Pseudomonas = assay: in vitro antibacterial activity, agar dilution (Pseudomonas)
Method: as §1

Streptococcus A = assay: in vitro antibacterial activity, agar dilution (Streptococcus A); conditions: strain C203
Method: as §1

Proteus rett = assay: in vitro antibacterial activity, agar dilution (Proteus rett); conditions: strain C24
Method: as §1

Proteus incon = assay: in vitro antibacterial activity, agar dilution (Proteus incon); conditions: strain PR33
Method: as §1

Staphylococcus Epi = assay: in vitro antibacterial activity, agar dilution (Staphylococcus epi)
Method: as §1

Shig. sonn = assay: in vitro antibacterial activity, agar dilution (Shig. sonn); conditions: strain N9
Method: as §1

Serratia = assay: in vitro antibacterial activity, agar dilution (Serratia)
Method: as §1

Streptococcus pn = assay: in vitro antibacterial activity, agar dilution (Streptococcus pn); conditions: strain PARK
Method: as §1

Enterbacter Aerogenes = assay: in vitro antibacterial activity, agar dilution (Enterobacter aerogenes)
Method: as §1

H. Influ. = assay: in vitro antibacterial activity, agar dilution (H. influ.)
Method: as §1

CO/N=C(\C(=O)N[C@@H]1C(=O)N2C(C(=O)O)=C(c3csc(-c4ccc(F)cc4)n3)CC[C@H]12)c1csc(N)n1 [Example 37, 7β-[(2-aminothiazol-4-yl)-Z-methoximinoacetylamino]-1-carba-(1-dethia)-3-[2-(4-fluorophenyl)thiazol-4-yl]-3-cephem-4-carboxylic acid]
minimum inhibitory concentration (Salmonella; strain 1335): 2 | minimum inhibitory concentration (Salmonella; strain X514): .5 | minimum inhibitory concentration (Proteus morg): 2 | minimum inhibitory concentration (E. coli; strain EC14): .5 | minimum inhibitory concentration (E. coli; strain N10): 2 | minimum inhibitory concentration (Klebsiella; strain KAE): 2 | minimum inhibitory concentration (Klebsiella; strain X26): < .008 | minimum inhibitory concentration (Klebsiella; strain X68): .5 | minimum inhibitory concentration (Citro): 4 | minimum inhibitory concentration (Streptococcus D; strain 2041): 4 | minimum inhibitory concentration (Streptococcus D; strain X66): > 128 | minimum inhibitory concentration (Staphylococcus Aureus; strain S13E): > 128 | minimum inhibitory concentration (Staphylococcus Aureus; strain V41): 2 | minimum inhibitory concentration (Staphylococcus Aureus; strain X1.1): 1 | minimum inhibitory concentration (Staphylococcus Aureus; strain X400): > 128 | minimum inhibitory concentration (Enterbacter Cloacea; strain 265A): > 128 | minimum inhibitory concentration (Enterbacter Cloacea; strain EB5): 2 | minimum inhibitory concentration (Acin): 128 | minimum inhibitory concentration (Pseudomonas; strain PS18): > 128 | minimum inhibitory concentration (Pseudomonas; strain PS72): > 128 | minimum inhibitory concentration (Pseudomonas; strain X239): > 128 | minimum inhibitory concentration (Pseudomonas; strain X528): > 128 | minimum inhibitory concentration (Streptococcus A): < .008 | minimum inhibitory concentration (Proteus rett): .125 | minimum inhibitory concentration (Proteus incon): .125 | minimum inhibitory concentration (Staphylococcus Epi; strain 222): 2 | minimum inhibitory concentration (Staphylococcus Epi; strain 270): 32 | minimum inhibitory concentration (Shig. sonn): 1 | minimum inhibitory concentration (Serratia; strain SE3): 8 | minimum inhibitory concentration (Serratia; strain X99): 4 | minimum inhibitory concentration (Streptococcus pn): < .008 | minimum inhibitory concentration (Enterbacter Aerogenes; strain C32): 2 | minimum inhibitory concentration (Enterbacter Aerogenes; strain EB17): 1 | minimum inhibitory concentration (H. Influ.; res, strain 76): .015 | minimum inhibitory concentration (H. Influ.; sens, strain C.L.): .03

CO/N=C(\C(=O)N[C@@H]1C(=O)N2C(C(=O)O)=C(c3csc(C(c4ccccc4)c4ccccn4)n3)CC[C@H]12)c1csc(N)n1 (stereo partly drawn) [Example 38, 7β-[(2-aminothiazol-4-yl)-Z-methoximinoacetylamino]-1-carba-(1-dethia)-3-[2-(phenyl)(2-pyridyl)methyl)thiazol-4-yl-3-cephem-4-carboxylic acid]
minimum inhibitory concentration (Salmonella; strain 1335): 8 | minimum inhibitory concentration (Salmonella; strain X514): 4 | minimum inhibitory concentration (Proteus morg): 32 | minimum inhibitory concentration (E. coli; strain EC14): 4 | minimum inhibitory concentration (E. coli; strain N10): 8 | minimum inhibitory concentration (E. coli; strain TEM): 4 | minimum inhibitory concentration (Klebsiella; strain KAE): 128 | minimum inhibitory concentration (Klebsiella; strain X26): .125 | minimum inhibitory concentration (Klebsiella; strain X68): 4 | minimum inhibitory concentration (Citro): 32 | minimum inhibitory concentration (Streptococcus D; strain 2041): 8 | minimum inhibitory concentration (Streptococcus D; strain X66): > 128 | minimum inhibitory concentration (Staphylococcus Aureus; strain S13E): > 128 | minimum inhibitory concentration (Staphylococcus Aureus; strain V41): 32 | minimum inhibitory concentration (Staphylococcus Aureus; strain X1.1): 4 | minimum inhibitory concentration (Staphylococcus Aureus; strain X400): > 128 | minimum inhibitory concentration (Enterbacter Cloacea; strain 265A): > 128 | minimum inhibitory concentration (Enterbacter Cloacea; strain EB5): 8 | minimum inhibitory concentration (Acin): 64 | minimum inhibitory concentration (Pseudomonas; strain PS18): > 128 | minimum inhibitory concentration (Pseudomonas; strain PS72): > 128 | minimum inhibitory concentration (Pseudomonas; strain X239): > 128 | minimum inhibitory concentration (Pseudomonas; strain X528): > 128 | minimum inhibitory concentration (Streptococcus A): < .008 | minimum inhibitory concentration (Proteus rett): 4 | minimum inhibitory concentration (Proteus incon): 4 | minimum inhibitory concentration (Staphylococcus Epi; strain 222): 64 | minimum inhibitory concentration (Staphylococcus Epi; strain 270): 64 | minimum inhibitory concentration (Shig. sonn): 8 | minimum inhibitory concentration (Serratia; strain SE3): 64 | minimum inhibitory concentration (Serratia; strain X99): 8 | minimum inhibitory concentration (Streptococcus pn): .015 | minimum inhibitory concentration (Enterbacter Aerogenes; strain C32): 8 | minimum inhibitory concentration (Enterbacter Aerogenes; strain EB17): 8 | minimum inhibitory concentration (H. Influ.; res, strain 76): .125 | minimum inhibitory concentration (H. Influ.; sens, strain C.L.): 2

CO/N=C(\C(=O)N[C@@H]1C(=O)N2C(C(=O)O)=C(c3csc(N)n3)CC[C@H]12)c1csc(N)n1 [Example 39]
minimum inhibitory concentration (Salmonella; strain 1335): 2 | minimum inhibitory concentration (Salmonella; strain X514): 1 | minimum inhibitory concentration (Proteus morg): 4 | minimum inhibitory concentration (E. coli; strain EC14): .5 | minimum inhibitory concentration (E. coli; strain N10): 1 | minimum inhibitory concentration (E. coli; strain TEM): .5 | minimum inhibitory concentration (Klebsiella; strain KAE): 2 | minimum inhibitory concentration (Klebsiella; strain X26): .015 | minimum inhibitory concentration (Klebsiella; strain X68): .5 | minimum inhibitory concentration (Citro): 8 | minimum inhibitory concentration (Streptococcus D; strain 2041): 8 | minimum inhibitory concentration (Streptococcus D; strain X66): > 128 | minimum inhibitory concentration (Staphylococcus Aureus; strain S13E): > 128 | minimum inhibitory concentration (Staphylococcus Aureus; strain V41): 8 | minimum inhibitory concentration (Staphylococcus Aureus; strain X1.1): 4 | minimum inhibitory concentration (Staphylococcus Aureus; strain X400): > 128 | minimum inhibitory concentration (Enterbacter Cloacea; strain 265A): > 128 | minimum inhibitory concentration (Enterbacter Cloacea; strain EB5): 2 | minimum inhibitory concentration (Acin): 128 | minimum inhibitory concentration (Pseudomonas; strain PS18): > 128 | minimum inhibitory concentration (Pseudomonas; strain PS72): > 128 | minimum inhibitory concentration (Pseudomonas; strain X239): > 128 | minimum inhibitory concentration (Pseudomonas; strain X528): > 128 | minimum inhibitory concentration (Streptococcus A): < .008 | minimum inhibitory concentration (Proteus rett): .25 | minimum inhibitory concentration (Proteus incon): .25 | minimum inhibitory concentration (Staphylococcus Epi; strain 222): 32 | minimum inhibitory concentration (Staphylococcus Epi; strain 270): 16 | minimum inhibitory concentration (Shig. sonn): .25 | minimum inhibitory concentration (Serratia; strain SE3): 8 | minimum inhibitory concentration (Serratia; strain X99): 1 | minimum inhibitory concentration (Streptococcus pn): .015 | minimum inhibitory concentration (Enterbacter Aerogenes; strain C32): 1 | minimum inhibitory concentration (Enterbacter Aerogenes; strain EB17): .5 | minimum inhibitory concentration (H. Influ.; res, strain 76): .06 | minimum inhibitory concentration (H. Influ.; sens, strain C.L.): .06
